{
  "source": "patent US7419981B2",
  "about": "“Synergistic combinations of an alpha-2-delta ligand and a cGMP phosphodieterse 5 inhibitor” (Pfizer Inc., priority 2002, dated 2008)",
  "key": {"[1]": {"tested_on": "CCI-induced static allodynia", "experiment": "CCI-induced static allodynia, paw withdrawal threshold to von Frey hairs", "assay_type": "in vivo, rat", "settings": "for blockade of static allodynia: alone; for minimum effective dose (MED), blockade of maintenance of static allodynia: administered alone, gabapentin p.o., sildenafil s.c.; for time of peak antiallodynic actions: post administration, CCI-induced static model", "procedure": "Male Sprague Dawley rats (200-250 g), obtained from Charles River, (Margate, Kent, U.K.) were housed in groups of 6. All animals were kept under a 12 h light/dark cycle (lights on at 07 h 00 min) with food and water ad libitum. All experiments were carried out by an observer unaware of drug treatments.\nAnimals were anaesthetised with isoflurane. The sciatic nerve was ligated as previously described by Bennett and Xie, 1988. Animals were placed on a homeothermic blanket for the duration of the procedure. After surgical preparation the common sciatic nerve was exposed at the middle of the thigh by blunt dissection through biceps femoris. Proximal to the sciatic trifurcation, about 7 mm of nerve was freed of adhering tissue and 4 ligatures (4-0 silk) were tied loosely around it with about 1 mm spacing. The incision was closed in layers and the wound treated with topical antibiotics.\nDose-responses to gabapentin and sildenafil were first performed alone in the CCI model. Combinations were examined following a fixed ratio design. A dose-response to each fixed dose ratio of the combination was performed. On each test day, baseline paw withdrawal thresholds (PWT) to von Frey hairs and paw withdrawal latencies (PWL) to a cotton bud stimulus were determined prior to drug treatment. Gabapentin was administered p.o. directly followed by s.c. administration of sildenafil and PWT and PWL re-examined for up to 5 h. The data are expressed at the 2 h time point for both the static and dynamic data as this timepoint represent the peak antiallodynic effects.\nStatic allodynia was measured using Semmes-Weinstein von Frey hairs (Stoelting, Illinois, U.S.A.). Animals were placed into wire mesh bottom cages allowing access to the underside of their paws. Animals were habituated to this environment prior to the start of the experiment. Static allodynia was tested by touching the plantar surface of the animals right hind paw with von Frey hairs in ascending order of force (0.7, 1.2, 1.5, 2, 3.6, 5.5, 8.5, 11.8, 15.1 and 29 g) for up to 6 sec. Once a withdrawal response was established, the paw was re-tested, starting with the next descending von Frey hair until no response occurred. The highest force of 29 g lifted the paw as well as eliciting a response, thus represented the cut off point. The lowest amount of force required to elicit a response was recorded as the PWT in grams."}, "[2]": {"tested_on": "CCI-induced dynamic allodynia", "experiment": "CCI-induced dynamic allodynia, paw withdrawal latency to cotton bud stimulus", "assay_type": "in vivo, rat", "settings": "for blockade of dynamic allodynia: alone; for minimum effective dose (MED), blockade of maintenance of dynamic allodynia: administered alone, gabapentin p.o., sildenafil s.c.; for time of peak antiallodynic actions: post administration, CCI-induced dynamic model", "procedure": "Male Sprague Dawley rats (200-250 g), obtained from Charles River, (Margate, Kent, U.K.) were housed in groups of 6. All animals were kept under a 12 h light/dark cycle (lights on at 07 h 00 min) with food and water ad libitum. All experiments were carried out by an observer unaware of drug treatments. Animals were anaesthetised with isoflurane. The sciatic nerve was ligated as previously described by Bennett and Xie, 1988. Animals were placed on a homeothermic blanket for the duration of the procedure. After surgical preparation the common sciatic nerve was exposed at the middle of the thigh by blunt dissection through biceps femoris. Proximal to the sciatic trifurcation, about 7 mm of nerve was freed of adhering tissue and 4 ligatures (4-0 silk) were tied loosely around it with about 1 mm spacing. The incision was closed in layers and the wound treated with topical antibiotics. […] Combinations were examined following a fixed ratio design. A dose-response to each fixed dose ratio of the combination was performed. On each test day, baseline paw withdrawal thresholds (PWT) to von Frey hairs and paw withdrawal latencies (PWL) to a cotton bud stimulus were determined prior to drug treatment. […] Dynamic allodynia was assessed by lightly stroking the plantar surface of the hind paw with a cotton bud. Care was taken to perform this procedure in fully habituated rats that were not active to avoid recording general motor activity. At least three measurements were taken at each time point the mean of which represented the paw withdrawal latency (PWL). […] Thus 15 s effectively represents no withdrawal. A withdrawal response was often accompanied with repeated flinching or licking of the paw. Dynamic allodynia was considered to be present if animals responded to the cotton stimulus before 8 s of stroking."}, "[3]": {"tested_on": "CCI-induced static allodynia", "experiment": "CCI-induced static allodynia, paw withdrawal threshold to von Frey hairs", "assay_type": "in vivo, rat", "settings": "Table 1; ratio 1:0, pregabalin 30 mg/kg alone"}},
  "note": "Counter-ions that a name gives are not always drawn.",
  "data": [
    {"molecule": "NCC1(CC(=O)O)CCCCC1", "note": "[Gabapentin, 1-(aminomethyl)-cyclohexylacetic acid]", "values": [
      {"measurement": "blockade of static allodynia", "setting": "[1]; 100 mg/kg p.o.", "value": "complete blockade"},
      {"measurement": "% reversal of allodynia", "setting": "[1]; Table 2, ratio 1:0, gabapentin 100 mg/kg alone", "value": 100, "unit": "%"},
      {"measurement": "minimum effective dose (MED), blockade of maintenance of static allodynia", "setting": "[1]", "value": 10, "unit": "mg/kg"},
      {"measurement": "time of peak antiallodynic actions", "setting": "[1]", "value": 2, "unit": "h"},
      {"measurement": "blockade of dynamic allodynia", "setting": "[2]; 100 mg/kg p.o.", "value": "complete blockade"},
      {"measurement": "minimum effective dose (MED), blockade of maintenance of dynamic allodynia", "setting": "[2]", "value": 10, "unit": "mg/kg"},
      {"measurement": "time of peak antiallodynic actions", "setting": "[2]", "value": 2, "unit": "h"}
    ]},
    {"molecule": "CC(C)C[C@H](CN)CC(=O)O", "note": "[Pregabalin, (S)-(+)-4-amino-3-(2-methylpropyl)butanoic acid]", "values": [
      {"measurement": "time of peak antiallodynic actions", "setting": "[1]", "value": 2, "unit": "h"},
      {"measurement": "% reversal of allodynia", "setting": "[3]", "value": 100, "unit": "%"}
    ]},
    {"molecule": "CCCC[C@@H](C)C[C@H](N)CC(=O)O", "note": "(as salt: hydrochloride)", "values": [
      {"measurement": "melting point", "value": "142.5 to 143.3", "unit": "°C"}
    ]},
    {"molecule": "CCC[C@@H](C)C[C@H](CN)C(=O)O", "note": "(as salt: hydrochloride)", "values": [
      {"measurement": "melting point", "value": "226.3 to 228", "unit": "°C"}
    ]},
    {"molecule": "CCCOc1ccc(S(=O)(=O)N2CCN(CC)CC2)cc1-c1nc2c(CC)n(Cc3ccccn3)nc2c(=O)[nH]1", "note": "[Compound AA, 3-Ethyl-5-[5-(4-ethyl-piperazine-1-sulfonyl)-2-propoxy-phenyl]-2-pyridin-2-ylmethyl-2,6-dihydro-pyrazolo[4,3-d]pyrimidin-7-one]", "values": [
      {"measurement": "% reversal of allodynia", "setting": "[1]; Table 2, ratio 0:1, 30 mg/kg alone (dose column headed Sildenafil)", "value": 50, "unit": "%"},
      {"measurement": "time of peak antiallodynic actions", "setting": "[1]", "value": 2, "unit": "h"}
    ]},
    {"molecule": "CCCc1nn(C)c2c(=O)[nH]c(-c3cc(S(=O)(=O)N4CCN(C)CC4)ccc3OCC)nc12", "note": "[Sildenafil, 5-[2-ethoxy-5-(4-methyl-1-piperazinylsulphonyl)phenyl]-1-methyl-3-n-propyl-1,6-dihydro-7H-pyrazolo[4,3-d]pyrimidin-7-one]", "values": [
      {"measurement": "blockade of static allodynia", "setting": "[1]; 30 mg/kg s.c.", "value": "~60", "unit": "%"},
      {"measurement": "% reversal of allodynia", "setting": "[1]; Table 1, ratio 0:1, sildenafil 30 mg/kg alone", "value": 50, "unit": "%"},
      {"measurement": "minimum effective dose (MED), blockade of maintenance of static allodynia", "setting": "[1]", "value": 10, "unit": "mg/kg"},
      {"measurement": "time of peak antiallodynic actions", "setting": "[1]", "value": 2, "unit": "h"},
      {"measurement": "blockade of dynamic allodynia", "setting": "[2]; 30 mg/kg s.c. (MED)", "value": 25, "unit": "%"},
      {"measurement": "minimum effective dose (MED), blockade of maintenance of dynamic allodynia", "setting": "[2]", "value": 30, "unit": "mg/kg"},
      {"measurement": "time of peak antiallodynic actions", "setting": "[2]", "value": 2, "unit": "h"}
    ]},
    {"molecule": "CCC[C@@H](C)C[C@H](N)CC(=O)O.Cl", "values": [
      {"measurement": "melting point", "value": "142.5 to 142.7", "unit": "°C"}
    ]},
    {"molecule": "CCCC(C)(C)CC(CN)C(=O)O.Cl", "note": "(centres unmarked)", "values": [
      {"measurement": "melting point", "value": "229.5 to 231", "unit": "°C"}
    ]},
    {"molecule": "CCCC(C)(C)C[C@H](N)CC(=O)O", "note": "(as salt: hydrochloride) (hydrate or solvate)", "values": [
      {"measurement": "melting point", "value": "194.2 to 195.2", "unit": "°C"}
    ]}
  ]
}
